Measured values reported in US6767890B1, “Peptides having anti-cancer and anti-inflammatory activity” (priority 1998, dated 2004).

How the values were obtained:
Collagenase IV = biological target: T1, Collagenase IV (Homo sapiens, UniProt P14780); assay: Collagenase IV enzyme assay; type: biochemical; details: 100.0 μM; average of duplicate; negative = stimulation
T1 construct: human U937; endogenous in cells; host or cells: U937 cells
Method: (§1) The peptide was further screened in vitro in a variety of enzyme and biochemical assays. Methods employed were adapted from the scientific literature to maximize reliability and reproducibility. The primary literature reference for each assay is listed in Table 11 opposite the results for each assay.
(§2) Results presented in Table 10, “Results,” are the average of duplicate determinations, unless otherwise noted.
(§3) Reference compounds were tested concurrently at 5 concentrations as an integral part of each assay to ensure the validity of the results obtained.
(§4) Enzyme assays were performed under conditions described in Table 8, “Experimental Conditions.”. The commercial suppliers and catalog numbers of substrates employed in this study are given in Table 7, “Material Sources.” The name, commercial source, and catalog numbers of concurrent reference compounds (controls) employed in this study are given in Table 9, “Reference Compound Data.” The reaction catalyzed by each enzyme is listed in Table 8, “Experimental Conditions.”
(§5) Biochemical assay results are presented in Table 10, as the percent inhibition of specific binding or activity, and unless noted are the average of duplicate tubes tested at each concentration.

Protease - Elastase = biological target: T2, Protease - Elastase (Homo sapiens, UniProt P08246); assay: Protease - Elastase enzyme assay; type: biochemical; details: 30.0 μM; average of duplicate; negative = stimulation
T2 construct: neutrophils; endogenous in cells; host or cells: human neutrophils
T2 sequence (P08246 30-267): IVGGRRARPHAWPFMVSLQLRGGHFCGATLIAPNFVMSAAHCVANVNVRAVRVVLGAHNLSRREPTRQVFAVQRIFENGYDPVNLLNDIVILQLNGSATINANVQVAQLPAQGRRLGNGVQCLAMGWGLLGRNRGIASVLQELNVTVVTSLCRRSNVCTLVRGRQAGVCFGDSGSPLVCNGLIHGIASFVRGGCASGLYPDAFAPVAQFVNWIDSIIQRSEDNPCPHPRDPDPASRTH
Method: as §1, §2, §3, §4, §5

Protein Kinase C - γ = Protein Kinase C - γ (Oryctolagus cuniculus, UniProt P10829); assay: Protein Kinase C - γ enzyme assay; type: biochemical, rabbit; details: 100.0 μM; average of duplicate; negative = stimulation
Method: The peptide was further screened in vitro in a variety of enzyme and biochemical assays. Methods employed were adapted from the scientific literature to maximize reliability and reproducibility.
Unless otherwise indicated, the peptide was tested in duplicate at the concentrations indicated for each assay. Results presented in Table 10, “Results,” are the average of duplicate determinations, unless otherwise noted.
as §4, §5

Interleukin-1α = biological target: T3, Interleukin-1α (Mus musculus, UniProt P13504); assay: Interleukin-1α radioligand binding; details: 10.0 μM; specific binding of [125I]IL-1 alpha; negative = stimulation
T3 construct: 3T3 cells; endogenous in cells; host or cells: Swiss 3T3 cells
T3 sequence (P13504 20-576): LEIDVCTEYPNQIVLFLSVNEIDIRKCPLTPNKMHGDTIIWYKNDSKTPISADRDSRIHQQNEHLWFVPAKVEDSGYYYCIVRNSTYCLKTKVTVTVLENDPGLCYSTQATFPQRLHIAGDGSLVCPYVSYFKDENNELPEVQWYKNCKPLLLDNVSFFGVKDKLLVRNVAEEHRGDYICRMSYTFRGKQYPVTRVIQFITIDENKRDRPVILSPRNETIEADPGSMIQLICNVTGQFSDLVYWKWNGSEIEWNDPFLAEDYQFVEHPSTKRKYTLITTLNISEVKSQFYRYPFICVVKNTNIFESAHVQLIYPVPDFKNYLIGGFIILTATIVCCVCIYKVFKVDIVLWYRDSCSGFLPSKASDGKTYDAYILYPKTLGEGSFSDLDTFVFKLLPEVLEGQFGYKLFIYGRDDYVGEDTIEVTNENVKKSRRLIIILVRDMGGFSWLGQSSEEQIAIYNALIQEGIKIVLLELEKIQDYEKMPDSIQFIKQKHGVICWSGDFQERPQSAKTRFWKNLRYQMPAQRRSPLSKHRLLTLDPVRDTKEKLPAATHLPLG
Method: as §1, §2
Reference compounds were tested concurrently at 5 concentrations as an integral part of each assay to ensure the validity of the results obtained. […]
Maximum total binding and nonspecific binding were determined each time each assay was run. […]
Where inhibition constants (Ki) are presented, the Ki values were calculated using the equation of Cheng and Prusoff (Cheng, Y., Prusoff, W. H., Biochem. Pharmacol. […], 1973) using the observed IC50 of the tested compound, the concentration of radioligand employed in the assay, and the historical values for the Kd of the ligand (obtained experimentally). Where presented, the Hill Coefficient (nH), defining the scope of the competitive binding curve, was calculated using GraphPad Prism. […] Where IC50, Ki, and/or Hill Slope data is presented without Standard Error of the Mean (SEM), data are insufficient to be quantitative, and the values presented (Ki, IC50, nH) should be interpreted with caution. […]

T1 sequence (P14780 94-707): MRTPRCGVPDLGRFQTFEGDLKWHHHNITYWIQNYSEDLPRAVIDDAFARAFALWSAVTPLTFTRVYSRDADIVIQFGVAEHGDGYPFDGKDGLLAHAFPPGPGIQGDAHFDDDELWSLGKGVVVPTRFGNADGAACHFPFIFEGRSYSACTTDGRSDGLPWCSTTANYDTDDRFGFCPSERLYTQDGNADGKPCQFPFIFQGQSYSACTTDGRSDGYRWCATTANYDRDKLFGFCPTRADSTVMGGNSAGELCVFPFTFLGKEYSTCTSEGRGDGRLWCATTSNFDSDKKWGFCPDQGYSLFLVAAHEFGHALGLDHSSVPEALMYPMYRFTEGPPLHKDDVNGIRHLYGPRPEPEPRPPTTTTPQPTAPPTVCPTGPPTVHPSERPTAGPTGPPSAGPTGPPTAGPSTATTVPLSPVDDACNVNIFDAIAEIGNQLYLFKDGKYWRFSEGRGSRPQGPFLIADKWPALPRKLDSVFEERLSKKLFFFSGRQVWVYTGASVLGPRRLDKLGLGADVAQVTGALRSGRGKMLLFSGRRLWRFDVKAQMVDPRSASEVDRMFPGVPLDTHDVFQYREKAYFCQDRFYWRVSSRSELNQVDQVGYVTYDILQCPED

Q: What does the source list for LEU-PRO-PRO-SER-ARG [Peptide]?
A: % Inhibition (Collagenase IV): 2%; % Inhibition (Protease - Elastase): −11%; % Inhibition (Protein Kinase C - γ): −6%; % Inhibition (Interleukin-1α): 15%
